Data from US8268813B2, “Zilpaterol enantiomer compositions and methods of making and using such compositions” (Intervet International B.V., priority 2006, dated 2012).
Where “and” joins values, the source holds several entries; their conditions need not be identical. Equal entries are not always repeated. Where two headings read alike, the source gives them in different places.

Tests used:
[1] = target: T1, human μ-opioid receptor (Homo sapiens, UniProt P35372); test: Radioligand binding assay, [3H]DAMGO, transfected HEK-293 cell membranes
T1 construct: expressed in transfected cells; host or cells: HEK-293 cells; membrane homogenates
Method: This investigation was conducted using a radioligand binding assay.
Non-specific binding was determined in the presence of 10 μM naloxone. Assay volume and format was 250 μl in 96-well plate. The test compound was added as a 10-fold concentrated solution, and the maximum tolerable DMSO concentration was 1%. Following incubation, the samples were filtered rapidly under vacuum through glass fiber filters (GF/B, Packard), pre-soaked with 0.3% PEI, and rinsed several times with ice-cold 50 mM Tris-HCl using a 96-sample cell harvester (Unifilter, Packard). The filters were dried, and counted for radioactivity in a scintillation counter (Topcount, Packard) using a scintillation cocktail (Microscint 0, Packard). The results were expressed as percent inhibition of the control radioligand specific binding.
Specific ligand binding to the receptors is the difference between the total binding and the non-specific binding determined in the presence of an excess of unlabelled ligand. The results are expressed as a percent of control specific binding and as a percent inhibition of control specific binding obtained in the presence of the test compounds.
The IC50 values (concentration causing a half-maximal inhibition of control specific binding) and Hill coefficients (nH) were determined by non-linear regression analysis of the competition curves using Hill equation curve fitting. […] Here, L is the concentration of radioligand in the assay, and KD is the affinity of the radioligand for the receptor.

[2] = system: μ-opioid receptor; test: Functional ex-vivo isolated organ bioassay (Guinea pig ileum), μ-opioid agonist response; settings: Applicants believe results may be faulty
[3] = target: β2 adrenergic receptors in guinea pig trachea (Cavia porcellus, UniProt Q8K4Z4)
Method: In this experiment, β2 adrenergic receptor agonist activities were functionally determined using a quantitative ex-vivo guinea pig trachea bioassay. […] Following extensive washings and recovery to the initial state, the tissues were exposed to a single or several cumulative concentrations of the test compounds or the same agonist. Each concentration was left in contact with the tissues until a stable response was obtained. […] Assay volume and format was 20 ml organ baths. […] Following washings, the tissues were contracted again with carbachol, and then exposed to increasing concentrations of the test compound or the same agonist. […] If it occurred, a recovery of contraction by the test compound indicated an antagonist activity at the β2 receptors. The parameter measured was the maximal change in tension induced by each compound concentration. […] The agonist efficacy and potency of the test compounds were evaluated respectively in terms of Emax values (maximum response) and EC50 values (concentration producing a half-maximum response). These were determined from the concentration-response curves.

[4] = Table 12, test concentration 1.0E−03 M
[5] = Table 12, test concentration 1.0E−04 M
[6] = Table 12, test concentration 1.0E−05 M
[7] = Table 12, test concentration 1.0E−06 M
[8] = Table 12, test concentration 3.0E−05 M
[9] = Table 12, test concentration 3.0E−06 M
[10] = Table 12, test concentration 3.0E−07 M
[11] = Table 12, test concentration 3.0E−08 M
[12] = calculated from the data in Table 12
[13] = first assay, test concentration 1.0E−05 M
[14] = repeat assay, test concentration 1.0E−03 M
[15] = Table 12, test concentration 3.0E−04 M

Sequence of β2 adrenergic receptors in guinea pig trachea (Q8K4Z4 whole entry): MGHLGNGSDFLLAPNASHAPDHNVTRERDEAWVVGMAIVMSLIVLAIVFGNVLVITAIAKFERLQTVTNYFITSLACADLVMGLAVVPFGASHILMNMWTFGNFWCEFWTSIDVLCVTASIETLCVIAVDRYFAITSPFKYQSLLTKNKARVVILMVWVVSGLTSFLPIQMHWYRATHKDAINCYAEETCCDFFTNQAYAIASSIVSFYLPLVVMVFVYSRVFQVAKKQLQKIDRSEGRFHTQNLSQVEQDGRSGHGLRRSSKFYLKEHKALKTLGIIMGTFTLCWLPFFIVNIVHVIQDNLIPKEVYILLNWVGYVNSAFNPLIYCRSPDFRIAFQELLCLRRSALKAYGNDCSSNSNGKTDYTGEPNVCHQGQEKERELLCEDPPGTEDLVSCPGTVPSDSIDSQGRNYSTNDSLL
T1 sequence (P35372 whole entry): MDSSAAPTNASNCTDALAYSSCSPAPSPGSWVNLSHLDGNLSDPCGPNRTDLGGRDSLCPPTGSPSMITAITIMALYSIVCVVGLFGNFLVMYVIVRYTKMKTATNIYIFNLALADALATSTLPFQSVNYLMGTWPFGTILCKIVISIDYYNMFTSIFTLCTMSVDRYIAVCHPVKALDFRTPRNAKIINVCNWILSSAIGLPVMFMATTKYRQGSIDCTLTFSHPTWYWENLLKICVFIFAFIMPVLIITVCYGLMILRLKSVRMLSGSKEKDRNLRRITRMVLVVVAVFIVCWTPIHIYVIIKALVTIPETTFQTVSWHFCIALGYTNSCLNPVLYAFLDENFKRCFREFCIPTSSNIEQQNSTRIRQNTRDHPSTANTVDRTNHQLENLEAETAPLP

SMILES	IC50 [1] [µM]	Ki [1] [µM]	binding to the μ-opioid receptor [1]	% of Control Specific Binding, Mean [1, 4] [%]	% of Control Specific Binding, Run 1 [1, 4] [%]	% of Control Specific Binding, Run 2 [1, 4] [%]	% of Control Specific Binding, Mean [1, 5] [%]	% of Control Specific Binding, Run 1 [1, 5] [%]	% of Control Specific Binding, Run 2 [1, 5] [%]	% of Control Specific Binding, Mean [1, 6] [%]	% of Control Specific Binding, Run 1 [1, 6] [%]	% of Control Specific Binding, Run 2 [1, 6] [%]	% of Control Specific Binding, Mean [1, 7] [%]	% of Control Specific Binding, Run 2 [1, 7] [%]	% of Control Specific Binding, Mean [1, 8] [%]	% of Control Specific Binding, Run 1 [1, 8] [%]	% of Control Specific Binding, Run 2 [1, 8] [%]	% of Control Specific Binding, Run 1 [1, 9] [%]	% of Control Specific Binding, Run 2 [1, 9] [%]	% of Control Specific Binding, Mean [1, 10] [%]	further results
CC(C)NC1CCn2c(=O)[nH]c3cccc(c32)C1O (racemic) [Racemic trans, 4,5,6,7-tetrahydro-7-hydroxy-6-(isopropylamino)imidazo[4,5,1-jk]-[1]benzazepin-2(1H)-one, reference compound]	31	13	greater binding	2.9	2.4	3.3	23.7	24.5	22.9	73.7	76.7	70.8	90.0	95.1	47.5	49.3	45.6	76.2	87.4	91.2	% of Control Specific Binding, Run 1 [1, 7]: 84.9%; % of Control Specific Binding, Mean [1, 9]: 81.8%; % of Control Specific Binding, Run 1 [1, 10]: 92.1%; % of Control Specific Binding, Mean [1, 11]: 98.3%; % of Control Specific Binding, Run 1 [1, 11]: 105.8%; % of Control Specific Binding, Run 2 [1, 11]: 90.9%; nH (Hill coefficient) [1, 12]: 0.9; % Inhibition of Control Specific Binding [1, 13]: 24%; % of Control Specific Binding, Mean [1, 13]: 76.2%; % of Control Specific Binding, Run 1 [1, 13]: 76.2%; % of Control Specific Binding, Run 2 [1, 13]: 76.2%; % Inhibition of Control Specific Binding [1, 14]: 98%; % of Control Specific Binding, Mean [1, 14]: 2.2%; % of Control Specific Binding, Run 1 [1, 14]: 1.6%; % of Control Specific Binding, Run 2 [1, 14]: 2.9%
CC(C)N[C@@H]1CCn2c(=O)[nH]c3cccc(c32)[C@H]1O (single isomer, unassigned) [6R,7R enantiomer, 6R,7R zilpaterol enantiomer]	320	130	binds weakly	24.1	23.0	25.2	71.1	71.3	70.8	81.3	80.4	82.1	89.3	87.5	80.7	73.9	87.5	92.1	88.7	93.6	% of Control Specific Binding, Mean [1, 15]: 43.5%; % of Control Specific Binding, Run 2 [1, 15]: 40.4%; % of Control Specific Binding, Run 1 [1, 10]: 94.8%; % of Control Specific Binding, Run 2 [1, 10]: 92.4%; nH (Hill coefficient) [1, 12]: 0.9; Ki ([1]; calculated from the data in Table 12, Cheng Prusoff): 130 µM; % Inhibition of Control Specific Binding [1, 13]: 7%; % of Control Specific Binding, Mean [1, 13]: 92.9%; % of Control Specific Binding, Run 1 [1, 13]: 90.8%; % of Control Specific Binding, Run 2 [1, 13]: 95.0%; % Inhibition of Control Specific Binding [1, 14]: 82%; % of Control Specific Binding, Mean [1, 14]: 17.9%; % of Control Specific Binding, Run 1 [1, 14]: 17.8%; % of Control Specific Binding, Run 2 [1, 14]: 18.0%; μ-opioid agonist response [2]: greater μ-opioid agonist response than both the 6S,7S zilpaterol enantiomer and racemic trans zilpaterol
CC(C)N[C@H]1CCn2c(=O)[nH]c3cccc(c32)[C@@H]1O [6S,7S enantiomer, 6S,7S zilpaterol enantiomer]	17	7	greater binding	1.2	1.4	0.9	16.4	15.9	16.9	60.2	61.1	59.2	87.7	84.6	36.1	34.9	37.2	81.0	77.2	95.3	% of Control Specific Binding, Run 1 [1, 7]: 90.9%; % of Control Specific Binding, Mean [1, 9]: 79.1%; % of Control Specific Binding, Run 1 [1, 10]: 97.5%; % of Control Specific Binding, Run 2 [1, 10]: 93.2%; % of Control Specific Binding, Mean [1, 11]: 95.8%; % of Control Specific Binding, Run 1 [1, 11]: 93.9%; % of Control Specific Binding, Run 2 [1, 11]: 97.7%; nH (Hill coefficient) [1, 12]: 0.9; % Inhibition of Control Specific Binding [1, 13]: 34%; % of Control Specific Binding, Mean [1, 13]: 66.3%; % of Control Specific Binding, Run 1 [1, 13]: 67.2%; % of Control Specific Binding, Run 2 [1, 13]: 65.4%; % Inhibition of Control Specific Binding [1, 14]: 100%; % of Control Specific Binding, Mean [1, 14]: 0.2%; % of Control Specific Binding, Run 1 [1, 14]: 0.1%; % of Control Specific Binding, Run 2 [1, 14]: 0.4%
C[C@@H](NC(=O)[C@@H](N)Cc1ccc(O)cc1)C(=O)NCC(=O)N(C)[C@@H](Cc1ccccc1)C(=O)NCCO [DAMGO, reference compound]	–	–	–	–	–	–	–	–	–	–	–	–	–	–	–	–	–	–	–	–	nH (Hill coefficient) ([1]; reference compound, three independent experiments): 1.0 and 0.9
CC(C)(C)NCC(O)c1ccc(O)c(CO)c1 (centres unmarked) [Salbutamol, salbutamol]	–	–	–	–	–	–	–	–	–	–	–	–	–	–	–	–	–	–	–	–	Percent of the Control Response to Salbutamol at 3.0E−07 M, Mean ([3]; Table 6, concentration 3.0E−08 M): 50%; Percent of the Control Response to Salbutamol at 3.0E−07 M, Mean ([3]; Table 6, concentration 3.0E−09 M): 8%; Percent of the Control Response to Salbutamol at 3.0E−07 M, Mean ([3]; Table 6, highest concentration 3.0E−07 M + ICI 118551 3.0E−07 M): 2%; Percent of the Control Response to Salbutamol at 3.0E−07 M, Mean ([3]; Table 7, concentration 3.0E−08 M): 53%; Percent of the Control Response to Salbutamol at 3.0E−07 M, Mean ([3]; Table 7, concentration 3.0E−09 M): 11%; Percent of the Control Response to Salbutamol at 3.0E−07 M, Mean ([3]; Table 7, highest concentration 3.0E−07 M + ICI 118551 3.0E−07 M): 5%
